Data as given in ChEMBL document CHEMBL5584338, “Design, Synthesis, and Biological Evaluation of 5-Amino-4-fluoro-1H-benzo[d]imidazole-6-carboxamide Derivatives as Novel and Potential MEK/RAF Complex Inhibitors Based on the "Clamp" Strategy” (J Med Chem, 2024).
The source made the active and inactive calls. The rule behind the calls is not given here.

What was measured:
MIA PaCa-2 [1] = experiment: Induction of apoptosis in human MIA PaCa-2 cells assessed as early apoptotic cells at 5 uM incubated for 24 hrs by Annexin V-FITC/PI staining based flow cytometry (reference value: 5.02 %); type: functional
MIA PaCa-2 [2] = experiment: Induction of apoptosis in human MIA PaCa-2 cells assessed as early apoptotic cells at 0.25 uM incubated for 24 hrs by Annexin V-FITC/PI staining based flow cytometry (reference value: 5.02 %); type: functional
MIA PaCa-2 [3] = experiment: Antiproliferative activity against human MIA PaCa-2 cells harboring KRAS G12C mutant at 0.1 uM incubated for 72 hrs by CCK8 assay relative to control; type: functional
MIA PaCa-2 [4] = experiment: Induction of apoptosis in human MIA PaCa-2 cells assessed as increase in cleaved PARP-1 level upto 1 uM incubated for 24 hrs by Western blot analysis; type: functional, cell-based
HCT-116 [5] = experiment: Antitumor activity against human HCT-116 cells harboring KRAS G13D mutant xenografted in NU/NU mouse at 30 mg/kg, iv administered 5 times a week for 16 days relative to control; type: functional; conditions: HCT-116, 384 h, time 16 day, read-out: TGI
HCT-116 [6] = experiment: Antiproliferative activity against human HCT-116 cells harboring KRAS G13D mutant at 1 uM incubated for 72 hrs by CCK8 assay relative to control; type: functional
[7] = Antitumor activity against mouse C26 cells harboring KRAS G12D mutant xenografted in BALB/c mouse at 30 mg/kg, iv administered 5 times a week for 12 days relative to control; type: functional, C-26; conditions: C26, 288 h, time 12 day, read-out: TGI
MIA PaCa-2 [8] = experiment: Induction of apoptosis in human MIA PaCa-2 cells assessed as early apoptotic cells at 1 uM incubated for 24 hrs by Annexin V-FITC/PI staining based flow cytometry (reference value: 5.02 %); type: functional
HCT-116 [9] = experiment: Antitumor activity against human HCT-116 cells harboring KRAS G13D mutant xenografted in NU/NU mouse assessed as tumor growth inhibition administered intravenously 5 times a week for 16 days; type: functional, cell-based; conditions: dose 15-30 mg/kg, route iv, time 16.0 day
[10] = biological target: RAF proto-oncogene serine/threonine-protein kinase (Homo sapiens) (UniProt P04049); experiment: Binding affinity to CRAF (unknown origin) at 1 uM by kinase profiling analysis
[11] = Half life in Sprague-Dawley rat at 5 mg/kg, iv; type: ADME, organism-based; conditions: in vivo
[12] = Toxicity in NU/NU mouse xenografted with human HCT-116 cells harboring KRAS G13D mutant assessed as animal death at 15 to 30 mg/kg, iv administered 5 times a week for 16 days; type: organism-based; conditions: in vivo, 384 h, dose 15-30 mg/kg, time 16 day
MIA PaCa-2 [13] = experiment: Induction of apoptosis in human MIA PaCa-2 cells assessed as early apoptotic cells at 0.05 uM incubated for 24 hrs by Annexin V-FITC/PI staining based flow cytometry (reference value: 5.02 %); type: functional
[14] = biological target: Dual specificity mitogen-activated protein kinase kinase; MEK1/2 (Homo sapiens) (UniProt P36507+Q02750); experiment: Inhibition of MEK phosphorylation in human MIA PaCa-2 cells upto 1 uM incubated for 4 hrs by Western blot analysis; type: cell-based
[15] = Toxicity in BALB/c mouse xenografted with […] harboring KRAS G12D mutant assessed as animal death at 5 to 30 mg/kg, iv administered 5 times a week for 12 days; type: organism-based, C-26; conditions: in vivo, 288 h, dose 5-30 mg/kg, time 12 day
MIA PaCa-2 [16] = experiment: Stabilization of MEK1/2/BRAF complex in human MIA PaCa-2 cells at 100 nM incubated for 4 hrs by co-immunoprecipitation method; type: cell-based
[17] = Antiproliferative activity against mouse C26 cells harboring KRAS G12D mutant incubated for 72 hrs by CCK8 assay; type: functional, cell-based, C-26; conditions: C26, 72 h
C-26 = experiment: Antitumor activity against mouse C26 cells harboring KRAS G12D mutant xenografted in BALB/c mouse assessed as tumor growth inhibition administered intravenously 5 times a week for 12 days; type: functional, cell-based; conditions: dose 5-30 mg/kg, route iv, time 12.0 day
[18] = system: Mitogen-activated protein kinase 1/3 (ERK1/2) (Homo sapiens); experiment: Inhibition of ERK phosphorylation in human MIA PaCa-2 cells upto 1 uM incubated for 4 hrs by Western blot analysis
HCT-116 [19] = experiment: Antiproliferative activity against human HCT-116 cells harboring KRAS G13D mutant incubated for 72 hrs by CCK8 assay; type: functional, cell-based; conditions: HCT-116, 72 h
[20] = biological target: T1, Serine/threonine-protein kinase A-Raf (Homo sapiens) (UniProt P10398); experiment: Binding affinity to ARAF (unknown origin) at 1 uM by kinase profiling analysis
T1 sequence (whole entry): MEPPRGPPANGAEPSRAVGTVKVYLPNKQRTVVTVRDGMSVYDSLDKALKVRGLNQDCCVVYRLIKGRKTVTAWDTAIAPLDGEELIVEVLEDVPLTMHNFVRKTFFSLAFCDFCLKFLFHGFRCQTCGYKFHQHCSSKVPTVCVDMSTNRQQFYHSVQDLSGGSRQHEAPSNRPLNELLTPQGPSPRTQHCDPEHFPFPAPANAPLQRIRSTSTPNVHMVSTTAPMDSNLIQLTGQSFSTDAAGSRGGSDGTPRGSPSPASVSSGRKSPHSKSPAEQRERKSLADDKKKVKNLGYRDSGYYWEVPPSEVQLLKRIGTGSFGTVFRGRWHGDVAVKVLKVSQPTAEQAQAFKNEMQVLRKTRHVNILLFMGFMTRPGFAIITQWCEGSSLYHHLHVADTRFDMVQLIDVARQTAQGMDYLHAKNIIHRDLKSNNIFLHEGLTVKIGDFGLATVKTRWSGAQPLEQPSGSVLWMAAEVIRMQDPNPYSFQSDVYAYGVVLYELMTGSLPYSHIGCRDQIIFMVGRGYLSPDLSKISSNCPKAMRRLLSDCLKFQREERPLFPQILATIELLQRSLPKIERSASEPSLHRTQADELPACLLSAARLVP

[21] = biological target: Dual specificity mitogen-activated protein kinase kinase 2 (Homo sapiens) (UniProt P36507); experiment: Binding affinity to MEK2 (unknown origin) at 1 uM by kinase profiling analysis
[22] = Stability in human liver microsomes assessed as half life at 200 uM preincubated for 5 mins followed by NADPH addition measured upto 60 mins by LC-MS/MS analysis; type: ADME, Microsome; conditions: time 65 min
MIA PaCa-2 [23] = experiment: Induction of apoptosis in human MIA PaCa-2 cells assessed as late apoptotic cells at 0.05 uM incubated for 24 hrs by Annexin V-FITC/PI staining based flow cytometry (reference value: 6.90 %); type: functional
[24] = Cmax in Sprague-Dawley rat at 5 mg/kg, iv; type: ADME, organism-based; conditions: in vivo
MIA PaCa-2 [25] = experiment: Antiproliferative activity against human MIA PaCa-2 cells harboring KRAS G12C mutant incubated for 72 hrs by CCK8 assay; type: functional, cell-based; conditions: MIA PaCa-2, 72 h
HCT-116 [26] = experiment: Inhibition of colony formation in human HCT-116 cells incubated for 10 days by crystal violet staining based analysis; type: functional, cell-based; conditions: dose 0.1-10 µM, time 10.0 day
HeLa = experiment: Antiproliferative activity against human HeLa cells incubated for 72 hrs by CCK8 assay; type: functional, cell-based

Chain of RAF proto-oncogene serine/threonine-protein kinase (Homo sapiens) (P04049 whole entry): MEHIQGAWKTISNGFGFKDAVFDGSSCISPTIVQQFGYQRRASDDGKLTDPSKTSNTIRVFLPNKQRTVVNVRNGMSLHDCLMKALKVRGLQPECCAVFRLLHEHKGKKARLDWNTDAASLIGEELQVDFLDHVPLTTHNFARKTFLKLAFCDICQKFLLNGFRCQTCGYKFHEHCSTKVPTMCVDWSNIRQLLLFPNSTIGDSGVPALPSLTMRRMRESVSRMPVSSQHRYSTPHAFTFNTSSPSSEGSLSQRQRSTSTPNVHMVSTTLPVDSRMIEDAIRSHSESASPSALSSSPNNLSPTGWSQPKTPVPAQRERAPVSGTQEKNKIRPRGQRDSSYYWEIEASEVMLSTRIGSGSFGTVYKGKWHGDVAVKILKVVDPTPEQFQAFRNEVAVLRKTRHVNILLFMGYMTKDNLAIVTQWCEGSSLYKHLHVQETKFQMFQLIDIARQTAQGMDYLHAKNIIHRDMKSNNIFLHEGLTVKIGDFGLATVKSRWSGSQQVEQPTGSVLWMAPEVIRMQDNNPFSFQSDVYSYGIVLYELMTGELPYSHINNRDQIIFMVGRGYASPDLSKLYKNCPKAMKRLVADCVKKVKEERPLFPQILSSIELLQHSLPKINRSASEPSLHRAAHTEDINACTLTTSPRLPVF
Chain of Dual specificity mitogen-activated protein kinase kinase 2 (Homo sapiens) (P36507 whole entry): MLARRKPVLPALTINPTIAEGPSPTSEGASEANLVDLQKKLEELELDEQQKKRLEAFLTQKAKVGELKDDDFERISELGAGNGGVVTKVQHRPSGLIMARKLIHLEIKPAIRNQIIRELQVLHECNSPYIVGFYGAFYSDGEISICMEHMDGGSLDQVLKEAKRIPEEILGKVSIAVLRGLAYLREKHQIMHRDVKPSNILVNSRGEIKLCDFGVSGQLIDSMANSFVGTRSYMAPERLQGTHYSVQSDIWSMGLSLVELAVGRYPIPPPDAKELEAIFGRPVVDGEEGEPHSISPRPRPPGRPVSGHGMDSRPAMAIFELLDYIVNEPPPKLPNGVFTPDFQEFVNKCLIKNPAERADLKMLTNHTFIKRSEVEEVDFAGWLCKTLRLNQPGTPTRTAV
Chain of Dual specificity mitogen-activated protein kinase kinase; MEK1/2 (Homo sapiens) (P36507 whole entry, looked up): as the sequence (P36507 whole entry) above
Chain of Dual specificity mitogen-activated protein kinase kinase; MEK1/2 (Homo sapiens) (Q02750 whole entry, looked up): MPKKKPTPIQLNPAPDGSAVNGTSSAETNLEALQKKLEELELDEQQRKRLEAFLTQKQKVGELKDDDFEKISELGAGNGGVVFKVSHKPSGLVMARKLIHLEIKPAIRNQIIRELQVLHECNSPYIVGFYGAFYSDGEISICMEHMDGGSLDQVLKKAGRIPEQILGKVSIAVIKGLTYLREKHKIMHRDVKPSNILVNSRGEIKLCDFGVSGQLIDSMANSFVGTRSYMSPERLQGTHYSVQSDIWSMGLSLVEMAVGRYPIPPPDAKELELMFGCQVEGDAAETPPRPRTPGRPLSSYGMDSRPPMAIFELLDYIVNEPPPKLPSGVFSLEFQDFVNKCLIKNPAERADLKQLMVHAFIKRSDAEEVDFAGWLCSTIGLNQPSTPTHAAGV

Question: Which Activity (MIA PaCa-2 [1]) does the source give for `CCNS(=O)(=O)Nc1cccc(Cn2cnc3c(F)c(Nc4ccc(C5CC5)cc4F)c(C(=O)NOCCO)cc32)c1F` here?
Answer: 42.1%

Question: What about the Activity (MIA PaCa-2 [2]) of the same compound?
Answer: 30.9%

Question: And the inhibition at 0.1 µM (MIA PaCa-2 [3])?
Answer: 85%

Question: What about the Activity (MIA PaCa-2 [4]) of the same compound?
Answer: Active

Question: And the inhibition in vivo at 30 mg/kg (HCT-116 [5])?
Answer: 93%

Question: And the inhibition at 1 µM (HCT-116 [6])?
Answer: 61.5%

Question: And the inhibition in vivo at 30 mg/kg [7]?
Answer: 70%

Question: What about the Activity (MIA PaCa-2 [8]) of the same compound?
Answer: 32.3%

Question: What about the inhibition (HCT-116 [9]) of the same compound?
Answer: Active

Question: And the Activity [10]?
Answer: Active

Question: And the half-life [11]?
Answer: 55.2 min

Question: And the Activity [12]?
Answer: Non-Toxic

Question: What about the Activity (MIA PaCa-2 [13]) of the same compound?
Answer: 10.7%

Question: And the inhibition [14]?
Answer: Active

Question: And the Activity [15]?
Answer: Non-Toxic

Question: What about the Activity (MIA PaCa-2 [16]) of the same compound?
Answer: Active

Question: What about the IC50 [17] of the same compound?
Answer: 96 nM

Question: What about the inhibition (C-26) of the same compound?
Answer: Active

Question: And the inhibition [18]?
Answer: Active

Question: What about the IC50 (HCT-116 [19]) of the same compound?
Answer: 79 nM

Question: What about the Activity [20] of the same compound?
Answer: Active

Question: And the Activity [21]?
Answer: Active

Question: What about the half-life at 200 µM [22] of the same compound?
Answer: 58.7 min

Question: And the Activity (MIA PaCa-2 [23])?
Answer: 6.59%

Question: What about the Cmax [24] of the same compound?
Answer: 603 ng/mL

Question: And the IC50 (MIA PaCa-2 [25])?
Answer: 11 nM

Question: And the inhibition (HCT-116 [26])?
Answer: Dose-Dependent Effect

Question: And the IC50 (HeLa)?
Answer: > 10000 nM
